Measured values from patent US9409884B2 (Rigel Pharmaceuticals, Inc., priority 2012, dated 2016).

target: AMPK; assay: AMPK activation, enzyme-linked immunosorbent assay; assay type: biochemical; details: Table 8, compounds of Table 1
Method: Compounds of Table 1 were assayed for their ability to activate AMPK using an enzyme-linked immunosorbent assay.
Compounds of Table 2 were assayed for their ability to activate AMPK using an enzyme-linked immunosorbent assay.
Compounds of Table 3 were assayed for their ability to activate AMPK using an enzyme-linked immunosorbent assay.
Compounds of Table 4 were assayed for their ability to activate AMPK using an enzyme-linked immunosorbent assay.
Compounds of Table 5 were assayed for their ability to activate AMPK using an enzyme-linked immunosorbent assay.
Compounds of Table 6 were assayed for their ability to activate AMPK using an enzyme-linked immunosorbent assay.
Compounds of Table 7 were assayed for their ability to activate AMPK using an enzyme-linked immunosorbent assay.

EC50 [µM] | Structure (SMILES)
< 0.1 | O=C(NC1CCN(Cc2ccc(F)cc2)CC1)c1ccc(OC2CCN(c3ccc(C(F)(F)F)cc3)CC2)nc1 [Compound 1-11, N-(1-(4-fluorobenzyl)piperidin-4-yl)-6-(1-(4-(trifluoromethyl)phenyl)piperidin-4-yloxy)nicotinamide]
< 0.1 | O=C(NC1CCN(Cc2ccccc2)CC1)c1cc2cc(OC3CCN(c4ccc(OC(F)(F)F)cc4)CC3)ccc2o1 [Compound 1-80, N-(1-benzylpiperidin-4-yl)-5-(1-(4-(trifluoromethoxy)phenyl)piperidin-4-yloxy)benzofuran-2-carboxamide]
< 0.1 | O=C(NC1CCN(Cc2ccncc2)CC1)c1cc2ccc(OC3CCN(c4ccc(OC(F)(F)F)cc4)CC3)cc2o1 [Compound 1-88, N-(1-(pyridin-4-ylmethyl)piperidin-4-yl)-6-(1-(4-(trifluoromethoxy)phenyl)piperidin-4-yloxy)benzofuran-2-carboxamide]
< 0.1 | O=C(NC1CCN(Cc2cccnc2)CC1)c1sc2cc(OC3CCN(c4ccc(C(F)(F)F)cc4)CC3)ccc2c1Cl [Compound 1-152, 3-chloro-N-(1-(pyridin-3-ylmethyl)piperidin-4-yl)-6-(1-(4-(trifluoromethyl)phenyl)piperidin-4-yloxy)benzo[b] thiophene-2-carboxamide]
0.1 to 0.5 | O=C(NC1CCN(Cc2ccccc2)CC1)c1cc2cc(OC3CCN(Cc4ccc(Cl)cc4)CC3)ccc2o1 [Compound 1-72, N-(1-benzylpiperidin-4-yl)-5-(1-(4-chlorobenzyl)piperidin-4-yloxy)benzofuran-2-carboxamide]
< 0.1 | CS(=O)(=O)c1ccc(CN2CC[C@@H](Oc3ccc4oc(C(=O)NC5CCN(Cc6ccc(OC(F)(F)F)cc6)CC5)cc4c3)[C@H](F)C2)cc1 [Compound 1-172, 5-((3,4-trans)-3-fluoro-1-(4-(methylsulfonyl)benzyl)piperidin-4-yloxy)-N-(1-(4-(trifluoromethoxy)benzyl)piperidin-4-yl)benzofuran-2-carboxamide]
0.1 to 0.5 | CN(C(=O)c1cc2cc(OC3CCN(c4ccc(C(F)(F)F)cc4)CC3)ccc2o1)C1CCN(Cc2ccncc2)CC1 [Compound 1-104, N-methyl-N-(1-(pyridin-4-ylmethyl)piperidin-4-yl)-5-(1-(4-(trifluoromethyl)phenyl)piperidin-4-yloxy)benzofuran-2-carboxamide]

same assay, conditions: Table 9, compounds of Table 2

EC50 [µM] | Structure (SMILES)
1 to 5 | O=C(NC1CCN(C(=O)Nc2ccc(C(F)(F)F)cc2)CC1)c1ccc2[nH]c3c(c2c1)CN(Cc1ccc(C(F)(F)F)cc1)CC3 [Compound 2-33, 2-(4-(trifluoromethyl)benzyl)-N-(1-(4-(trifluoromethyl)phenylcarbamoyl)piperidin-4-yl)-2,3,4,5-tetrahydro-1H-pyrido[4,3-b]indole-8-carboxamide]

same assay, conditions: Table 10, compounds of Table 3

EC50 [µM] | Structure (SMILES)
< 0.1 | N#Cc1ccc(CN2CCc3ccc(C(=O)NC4CCN(Cc5cccnc5)CC4)cc3C2)cc1 [Compound 3-38, 2-(4-cyanobenzyl)-N-(1-(pyridin-3-ylmethyl)piperidin-4-yl)-1,2,3,4-tetrahydroisoquinoline-7-carboxamide]
10 to 100 | O=C(NC1CCNCC1)c1nc2ccc(OC3CCN(c4ccc(C(F)(F)F)cc4)CC3)cc2o1 [Compound 3-5, N-(piperidin-4-yl)-6-(1-(4-(trifluoromethyl)phenyl)piperidin-4-yloxy)benzo[d]oxazole-2-carboxamide]

same assay, conditions: Table 12, compounds of Table 5

EC50 [µM] | Structure (SMILES)
< 1 | CC(C)(C)c1ccc(CN2CCC(Oc3ccc(C(=O)NC4CCN(Cc5ccccc5)CC4)cc3Cl)CC2)cc1 [Compound 5-16, N-(1-benzylpiperidin-4-yl)-4-(1-(4-tert-butylbenzyl)piperidin-4-yloxy)-3-chlorobenzamide]
< 1 | CS(=O)(=O)c1ccc(CN2CC[C@@H](Oc3cccc(C(=O)NC4CCN(Cc5ccc(C#N)cc5)CC4)c3)[C@H](F)C2)cc1 [Compound 5-128, N-(1-(4-cyanobenzyl)piperidin-4-yl)-3-((3,4-trans)-3-fluoro-1-(4-(methylsulfonyl)benzyl)piperidin-4-yloxy)benzamide]
< 1 | Cc1ccc(CN2CCC(Oc3ccc(C(=O)NC4CCN(Cc5ccc(F)cc5)CC4)cc3Cl)CC2)cc1 [Compound 5-68, 3-chloro-N-(1-(4-fluorobenzyl)piperidin-4-yl)-4-(1-(4-methylbenzyl)piperidin-4-yloxy)benzamide]
< 1 | CC(C)Oc1ccc(CN2CCC(Oc3cccc(C(=O)NC4CCN(Cc5ccc(C#N)cc5)CC4)c3)CC2)cc1 [Compound 5-121, N-(1-(4-cyanobenzyl)piperidin-4-yl)-3-(1-(4-isopropoxybenzyl)piperidin-4-yloxy)benzamide]
< 1 | O=C(NC1CCN(Cc2ccccc2)CC1)c1ccc(OC2CCN(Cc3ccc(OC(F)(F)F)cc3)CC2)c(F)c1 [Compound 5-57, N-(1-benzylpiperidin-4-yl)-3-fluoro-4-(1-(4-(trifluoromethoxy)benzyl)piperidin-4-yloxy)benzamide]
< 1 | O=C(NC1CCN(Cc2ccccc2)CC1)c1ccc(OC2CCN(Cc3ccc(OC(F)(F)F)cc3)CC2)c(Cl)c1 [Compound 5-54, N-(1-benzylpiperidin-4-yl)-3-chloro-4-(1-(4-(trifluoromethoxy)benzyl)piperidin-4-yloxy)benzamide]
< 1 | N#Cc1ccc(N2CCC(Oc3ccc(C(=O)NC4CCN(Cc5ccc(Cl)cc5)CC4)cc3F)CC2)cc1 [Compound 5-81, N-(1-(4-chlorobenzyl)piperidin-4-yl)-4-(1-(4-cyanophenyl)piperidin-4-yloxy)-3-fluorobenzamide]
< 1 | O=C(NC1CCN(Cc2cccnc2)CC1)c1ccc(OC2CCN(c3ccc(C(F)(F)F)cc3)CC2)c(F)c1 [Compound 5-29, 3-fluoro-N-(1-(pyridin-3-ylmethyl)piperidin-4-yl)-4-(1-(4-(trifluoromethyl)phenyl)piperidin-4-yloxy)benzamide]
< 1 | N#Cc1ccc(CN2CCC(NC(=O)c3cccc(O[C@@H]4CCN(Cc5ccc(C#N)c(F)c5)C[C@H]4F)c3)CC2)cc1 [Compound 5-129, 3-((3,4-trans)-1-(4-cyano-3-fluorobenzyl)-3-fluoropiperidin-4-yloxy)-N-(1-(4-cyanobenzyl)piperidin-4-yl)benzamide]

same assay, conditions: Table 13, compounds of Table 6

EC50 [µM] | Structure (SMILES)
1 to 10 | N#Cc1ccc(CN2CCC(NC(=O)c3cc4cc(NC(=O)C5CCN(c6ccc(C(F)(F)F)cc6)CC5)ccc4o3)CC2)cc1 [Compound 6-83, N-(2-(1-(4-cyanobenzyl)piperidin-4-ylcarbamoyl)benzofuran-5-yl)-1-(4-(trifluoromethyl)phenyl) piperidine-4-carboxamide]
< 0.1 | COc1ccc(CN2CCC(NC(=O)c3cc4cc(C(=O)N5CCN(Cc6cccc(S(C)(=O)=O)c6)CC5)ccc4n3C)CC2)cc1F [Compound 6-142, N-(1-(3-fluoro-4-methoxybenzyl)piperidin-4-yl)-1-methyl-5-(4-(3-(methylsulfonyl)benzyl)piperazine-1-carbonyl)-1H-indole-2-carboxamide]
< 0.1 | COc1ccc(CN2CCC(NC(=O)c3cc4cc(C(=O)N5CCC(Oc6ccc(C(F)(F)F)cc6)CC5)ccc4o3)CC2)cc1 [Compound 6-25, N-(1-(4-methoxybenzyl)piperidin-4-yl)-5-(4-(4-(trifluoromethyl)phenoxy)piperidine-1-carbonyl) benzofuran-2-carboxamide]
< 0.1 | O=C(Nc1ccc2oc(C(=O)N3CCC(Oc4ccc(C(F)(F)F)cc4)CC3)cc2c1)c1ccc(Oc2ccc(F)cc2)cc1 [Compound 6-24, 4-(4-fluorophenoxy)-N-(2-(4-(4-(trifluoromethyl)phenoxy)piperidine-1-carbonyl)benzofuran-5-yl)benzamide]
< 0.1 | COc1ccc(CN2CCC(NC(=O)c3cc4cc(C(=O)N5CCN(Cc6ccc(S(C)(=O)=O)c(Cl)c6)CC5)ccc4o3)CC2)cc1F [Compound 6-133, 5-(4-(3-chloro-4-(methylsulfonyl)benzyl)piperazine-1-carbonyl)-N-(1-(3-fluoro-4-methoxybenzyl)piperidin-4-yl)benzofuran-2-carboxamide]

same assay, conditions: Table 14, compounds of Table 7

EC50 [µM] | Structure (SMILES)
< 1 | O=C(Nc1ccc(Oc2ccc(S(F)(F)(F)(F)F)cc2)nc1)c1ccc(C(=O)N2CCC(C(=O)c3ccc(N4CCCC4)cc3)CC2)cn1 [Compound 7-4, 5-(4-(4-(pyrrolidin-1-yl)benzoyl)piperidine-1-carbonyl)-N-(6-(4-(pentafluorosulfanyl)phenoxy)pyridin-3-yl)picolinamide]
< 1 | O=C(NC1CCN(Cc2cccc(OC(F)(F)F)c2)CC1)c1ccc(C(=O)N2CCC(C(=O)c3ccc(N4CCCC4)cc3)CC2)nc1 [Compound 7-111, 6-(4-(4-(pyrrolidin-1-yl)benzoyl)piperidine-1-carbonyl)-N-(1-(3-(trifluoromethoxy)benzyl)piperidin-4-yl)nicotinamide]
< 1 | CC(=O)c1ccc(Oc2ccc(NC(=O)c3ccc(C(=O)N4CCC(Oc5ccc6sc(C)nc6c5)CC4)nc3)cn2)cc1 [Compound 7-20, N-(6-(4-acetylphenoxy)pyridin-3-yl)-6-(4-(2-methylbenzo[d]thiazol-5-yloxy)piperidine-1-carbonyl)nicotinamide]
< 1 | O=C(NC1CCN(Cc2ccc(N3CCCC3)cc2)CC1)c1ccc(C(=O)N2CCC(C(=O)c3ccc(N4CCCC4)cc3)CC2)nc1 [Compound 7-114, 6-(4-(4-(pyrrolidin-1-yl)benzoyl)piperidine-1-carbonyl)-N-(1-(4-(pyrrolidin-1-yl)benzyl)piperidin-4-yl)nicotinamide]
< 1 | COc1ccc(C(=O)C2CCN(C(=O)c3cc(C)c(C(=O)NC4CCN(Cc5ccc(C#N)cc5)CC4)cn3)CC2)cc1 [Compound 7-105, N-(1-(4-cyanobenzyl)piperidin-4-yl)-6-(4-(4-methoxybenzoyl)piperidine-1-carbonyl)-4-methylnicotinamide]
